Data: publication PMC12311865, “In Vitro Evaluation of the Potential Interactions of Zearalenone-14-sulfate and Zearalenone-14-glucuronide with Human Cytochrome P450 Enzymes, Organic Anion Transporting Polypeptides, and ATP-Binding Cassette Multidrug Transporters” (ACS Omega, 2025)
Where two headings read alike, the source gives them in different places.

Columns and labels:
OATP1B1 = target: T1, OATP1B1 (Homo sapiens, UniProt Q9Y6L6); assay: OATP1B1-mediated pyranine uptake in overexpressing A431 cells; assay type: cell-based
T1 construct: expressed in transfected cells; host or cells: A431
T1 sequence (Q9Y6L6 1-691): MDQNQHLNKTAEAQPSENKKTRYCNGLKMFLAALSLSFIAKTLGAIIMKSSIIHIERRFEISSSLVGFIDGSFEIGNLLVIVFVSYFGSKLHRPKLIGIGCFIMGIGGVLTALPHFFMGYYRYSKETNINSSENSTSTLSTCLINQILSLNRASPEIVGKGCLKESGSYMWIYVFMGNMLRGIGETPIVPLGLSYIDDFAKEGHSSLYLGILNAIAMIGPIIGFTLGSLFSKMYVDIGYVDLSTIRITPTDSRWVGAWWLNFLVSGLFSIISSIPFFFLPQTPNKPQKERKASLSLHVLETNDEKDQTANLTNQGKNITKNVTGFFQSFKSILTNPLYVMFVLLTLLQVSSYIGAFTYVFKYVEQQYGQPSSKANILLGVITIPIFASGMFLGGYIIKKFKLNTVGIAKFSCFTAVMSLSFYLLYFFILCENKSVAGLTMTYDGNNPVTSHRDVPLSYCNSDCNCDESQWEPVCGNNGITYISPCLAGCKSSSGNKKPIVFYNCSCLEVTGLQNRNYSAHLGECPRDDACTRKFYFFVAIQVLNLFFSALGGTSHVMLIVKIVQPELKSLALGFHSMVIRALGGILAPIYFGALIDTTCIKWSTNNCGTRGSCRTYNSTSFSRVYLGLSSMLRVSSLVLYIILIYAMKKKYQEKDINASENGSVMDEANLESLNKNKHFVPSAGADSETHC
Experimental: (§1) The human epidermoid carcinoma cell (A431) overexpressing OATP1A2, OATP1B1, OATP1B3, or OATP2B1 transporters and their mock control cells were generated previously as described. , Cell culture was maintained in DMEM supplemented with 10% fetal bovine serum, 2 mM L-glutamine, 100 units/mL penicillin, and 100 μg/mL streptomycin at 37 °C and 5% CO2.
(§2) The inhibitory effects of mycotoxins (Z14S and Z14GA) were examined using indirect fluorescence assays, where pyranine and SR101 were used as fluorescent substrates. , A431 cells overexpressing OATP1A2, OATP1B1/3, or OATP2B1 and their mock-transfected controls were seeded at a density of 8 × 10^4 cells/well onto 96-well plates and incubated for 18–22 h prior to transport measurements. The next day, plated cells were washed three times with 200 μL of PBS (phosphate-buffered saline, pH 7.4) and preincubated with 50 μL of transport buffer (pH 5.5; 125 mM NaCl, 4.8 mM KCl, 1.2 mM CaCl2, 1.2 mM KH2PO4, 12 mM MgSO4, 25 mM MES, and 5.6 mM glucose) with or without increasing concentrations of the mycotoxins tested (0.001–20 μM) for 5 min at 37 °C. The transport inhibition measurements were initiated by adding 50 μL of transport buffer containing the proper fluorescent substrate SR101 (0.5 μM, OATP1A2) or pyranine (10 μM for OATP1B1 or 20 μM for OATP1B3 and OATP2B1). After 10 min (OATP1A2), 15 min (OATP1B1 and OATP2B1), or 30 min (OATP1B3) incubation, the transport was terminated by washing the cells three times with ice-cold PBS. Regarding the individual OATP assays, we applied different incubation times to keep the substrate uptake in the linear range, , avoiding substrate depletion or saturation effects, as it is indispensable for the accurate assessment. Using an Enspire plate reader (PerkinElmer, Waltham, MA), the fluorescence was measured at excitation/emission wavelengths of 460/510 nm (pyranine) or 586/605 nm (SR101).
(§3) OATP-mediated transport was obtained by subtracting the activity of the mock control cells from the activity of the OATP-expressing cells. The transport activity (%) of the OATPs was calculated by comparing the fluorescence signal obtained in the absence of the compounds tested (set to 100%).

OATP1B3 = target: T2, OATP1B3 (Homo sapiens, UniProt Q9NPD5); assay: OATP1B3-mediated pyranine uptake in overexpressing A431 cells; assay type: cell-based
T2 construct: expressed in transfected cells; host or cells: A431
T2 sequence (Q9NPD5 1-702): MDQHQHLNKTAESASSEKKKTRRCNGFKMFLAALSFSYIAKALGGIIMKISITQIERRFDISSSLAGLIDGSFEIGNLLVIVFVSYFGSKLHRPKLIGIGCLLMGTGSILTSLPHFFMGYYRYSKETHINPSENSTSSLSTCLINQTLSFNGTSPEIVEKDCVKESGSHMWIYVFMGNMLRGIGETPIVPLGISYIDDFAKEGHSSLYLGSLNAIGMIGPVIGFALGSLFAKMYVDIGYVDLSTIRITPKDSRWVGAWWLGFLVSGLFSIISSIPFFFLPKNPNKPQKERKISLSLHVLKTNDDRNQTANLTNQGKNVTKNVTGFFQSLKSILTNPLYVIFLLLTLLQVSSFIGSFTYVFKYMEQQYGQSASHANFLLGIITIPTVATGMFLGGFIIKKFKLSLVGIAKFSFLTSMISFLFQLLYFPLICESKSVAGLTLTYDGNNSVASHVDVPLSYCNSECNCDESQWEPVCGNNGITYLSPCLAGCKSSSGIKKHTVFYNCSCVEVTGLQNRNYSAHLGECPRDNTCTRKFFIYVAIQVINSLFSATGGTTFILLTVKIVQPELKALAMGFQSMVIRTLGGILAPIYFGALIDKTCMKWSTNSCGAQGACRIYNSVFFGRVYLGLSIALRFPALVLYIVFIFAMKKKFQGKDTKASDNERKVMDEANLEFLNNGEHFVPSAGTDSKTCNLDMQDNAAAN
Experimental: as §1
as §2, with “Regarding the individual OATP assays, we applied different incubation times to keep the substrate uptake in the linear range, , avoiding substrate depletion or saturation effects, as it is indispensable for the accurate assessment.” left out
as §3

CYP1A2 = target: T3, CYP1A2 (Homo sapiens, UniProt P05177); conditions: each 20 μM; 0.2 vol % DMSO
T3 sequence (P05177 1-516): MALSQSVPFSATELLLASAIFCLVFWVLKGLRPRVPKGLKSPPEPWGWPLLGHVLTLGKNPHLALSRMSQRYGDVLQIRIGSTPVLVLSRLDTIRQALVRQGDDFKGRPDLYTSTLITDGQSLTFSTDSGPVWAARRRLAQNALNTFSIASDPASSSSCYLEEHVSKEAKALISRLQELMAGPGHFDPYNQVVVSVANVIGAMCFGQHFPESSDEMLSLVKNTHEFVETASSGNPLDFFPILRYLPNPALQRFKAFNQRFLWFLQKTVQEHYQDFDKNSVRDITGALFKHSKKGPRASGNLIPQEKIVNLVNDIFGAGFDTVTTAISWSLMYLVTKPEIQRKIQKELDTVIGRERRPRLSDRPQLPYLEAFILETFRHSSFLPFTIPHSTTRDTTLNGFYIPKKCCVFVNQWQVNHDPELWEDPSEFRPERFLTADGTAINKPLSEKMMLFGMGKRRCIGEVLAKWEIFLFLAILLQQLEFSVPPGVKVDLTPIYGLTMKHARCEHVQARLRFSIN
Experimental: We applied 10 mM stock solutions of mycotoxins (dissolved in DMSO), and the samples (including controls and positive controls) contained uniformly 0.2 vol % DMSO.

[1] = 20 μM, pyranine substrate, A431 cells

C[C@H]1CCCC(=O)CCC/C=C/c2cc(O[C@@H]3O[C@H](C(=O)O)[C@@H](O)[C@H](O)[C@H]3O)cc(O)c2C(=O)O1 [Z14GA, Zearalenone-14-glucuronide]
IC50 (OATP1B1; pyranine 10 μM, 15 min, A431 cells, read-out: IC50 for OATP1B1): > 20000 nM
IC50 (OATP1B3; pyranine 20 μM, 30 min, A431 cells, read-out: IC50 for OATP1B3): > 20000 nM
inhibition of CYP1A2 activity (CYP1A2): no effects

C[C@H]1CCCC(=O)CCC/C=C/c2cc(OS(=O)(=O)O)cc(O)c2C(=O)O1 [Z14S, zearalenone-14-sulfate]
IC50 (OATP1B1): 270 nM
decrease in OATP1B1 transport activity (OATP1B1; [1]): 80–100%
stronger inhibition on OATP1B1 compared to ZEN (OATP1B1; ratio of IC50 values vs ZEN): more than 30 fold
IC50 (OATP1B3): 2300 nM
decrease in OATP1B3 transport activity (OATP1B3; [1]): 80–100%
inhibition of CYP1A2 activity (CYP1A2): did not influence
